From ChEMBL document CHEMBL1201862, “PubChem BioAssay data set” (2004)
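Compound exposure: 48 hours, 5 concentrations, 96-well plates. GI50: concentration for 50% inhibition of growth.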 Activity calls are given as the source filed them. Rule as the data show it: active = GI50 up to about 1.1 µM and inactive = higher.

Assays:
Assay in all cases: growth of human tumour cells (NCI), 48 h
[1] = system: OVCAR-4
[2] = system: BT-549
[3] = system: UO-31
[4] = system: NCI/ADR-RES
[5] = system: HCT-15
[6] = system: HOP-92
[7] = system: M14
[8] = system: A498
[9] = system: CAKI-1
[10] = system: CCRF-CEM
[11] = system: NCI-H226
[12] = system: HT-29
[13] = system: SK-MEL-28
[14] = system: HCT-116
[15] = system: SNB-19
[16] = system: RXF 393
[17] = system: U-251
[18] = system: MDA-MB-435
[19] = system: T47D
[20] = system: MCF7
[21] = system: TK-10
[22] = system: MDA-MB-231
[23] = system: Malme-3M
[24] = system: SW-620
[25] = system: ACHN
[26] = system: COLO 205
[27] = system: OVCAR-5
[28] = system: K562
[29] = system: MOLT-4
[30] = system: NCI-H522
[31] = system: MDA-N
[32] = system: SR
[33] = system: SF-539
[34] = system: NCI-H23
[35] = system: OVCAR-3
[36] = system: LOX IMVI
[37] = system: A549
[38] = system: EKVX
[39] = system: SN12C
[40] = system: SK-MEL-2
[41] = system: IGROV-1
[42] = system: SF-295
[43] = system: SNB-75
[44] = system: SF-268
[45] = system: SK-MEL-5
[46] = system: RPMI-8226
[47] = system: OVCAR-8
[48] = system: DU-145
[49] = system: 786-0
[50] = system: HCC 2998
[51] = system: UACC-62
[52] = system: KM12
[53] = system: PC-3
[54] = system: SK-OV-3
[55] = system: NCI-H460
[56] = system: UACC-257
[57] = system: HOP-62
[58] = system: HL-60
[59] = system: Hs-578T

C[C@]12CC[C@@H]3c4ccc(O)cc4CC[C@H]3[C@@H]1C/C(=C\c1ccc(C#N)cc1)C2=O
GI50 [1]: 40.5 µM (inactive)
GI50 [2]: 48.2 µM (inactive)
GI50 [3]: 46.9 µM (inactive)
GI50 [4]: 59.3 µM (inactive)
GI50 [5]: 71.8 µM
GI50 [6]: 26.8 µM (inactive)
GI50 [7]: 41.8 µM (inactive)
GI50 [8]: > 100 µM (inactive)
GI50 [9]: 82.8 µM (inactive)
GI50 [10]: 34.4 µM (inactive)
GI50 [11]: 37.9 µM (inactive)
GI50 [12]: 24.9 µM (inactive)
GI50 [13]: 36.2 µM (inactive)
GI50 [14]: 32.9 µM (inactive)
GI50 [15]: 52.4 µM (inactive)
GI50 [16]: 14.6 µM (inactive)
GI50 [17]: 24.7 µM (inactive)
GI50 [18]: 19.4 µM (inactive)
GI50 [19]: 46.8 µM (inactive)
GI50 [20]: 45.5 µM (inactive)
GI50 [21]: 34.1 µM (inactive)
GI50 [22]: 23.3 µM (inactive)
GI50 [23]: 28.3 µM (inactive)
GI50 [24]: 24.5 µM (inactive)
GI50 [25]: 64 µM (inactive)
GI50 [26]: 37.2 µM (inactive)
GI50 [27]: 71.8 µM (inactive)
GI50 [28]: > 100 µM (inactive)
GI50 [29]: 23.5 µM (inactive)
GI50 [30]: 17.4 µM (inactive)
GI50 [31]: 25 µM (inactive)
GI50 [32]: 50 µM (inactive)
GI50 [33]: 36.5 µM (inactive)
GI50 [34]: 38.2 µM (inactive)
GI50 [35]: 21.9 µM (inactive)
GI50 [36]: 40.8 µM (inactive)
GI50 [37]: 30.8 µM (inactive)
GI50 [38]: 34.8 µM (inactive)
GI50 [39]: 68.4 µM (inactive)
GI50 [40]: 28.8 µM (inactive)
GI50 [41]: 46.1 µM (inactive)
GI50 [42]: 71.6 µM (inactive)
GI50 [43]: 94 µM (inactive)
GI50 [44]: 61 µM (inactive)
GI50 [45]: 19.2 µM (inactive)
GI50 [46]: 13.3 µM (inactive)
GI50 [47]: 55.5 µM (inactive)
GI50 [48]: 57.4 µM (inactive)
GI50 [49]: 35.7 µM (inactive)
GI50 [50]: 37.3 µM (inactive)
GI50 [51]: 61.1 µM (inactive)
GI50 [52]: 23.1 µM (inactive)
GI50 [53]: 18.6 µM (inactive)
GI50 [54]: 57 µM (inactive)
GI50 [55]: 36.1 µM (inactive)
GI50 [56]: 30.8 µM (inactive)
GI50 [57]: 40.4 µM (inactive)

CC(C(=O)N1C(=O)N(C(=O)C(C)C(O)c2ccccc2)C(c2ccccc2)C1c1ccccc1)C(O)c1ccccc1 (stereo not drawn)
GI50 [1]: 13.4 µM (inactive)
GI50 [2]: 12.6 µM (inactive)
GI50 [3]: 5.33 µM (inactive)
GI50 [58]: 2.27 µM (inactive)
GI50 [5]: 15.5 µM
GI50 [6]: 5.92 µM (inactive)
GI50 [7]: 10.5 µM (inactive)
GI50 [10]: 5.56 µM (inactive)
GI50 [11]: 12.4 µM (inactive)
GI50 [12]: 5 µM (inactive)
GI50 [13]: 15.8 µM (inactive)
GI50 [14]: 6.21 µM (inactive)
GI50 [15]: 5.52 µM (inactive)
GI50 [16]: 6.21 µM (inactive)
GI50 [17]: 10.4 µM (inactive)
GI50 [18]: 15 µM (inactive)
GI50 [19]: 6.47 µM (inactive)
GI50 [20]: 4.43 µM (inactive)
GI50 [21]: 22.6 µM (inactive)
GI50 [22]: 16.6 µM (inactive)
GI50 [23]: 12.2 µM (inactive)
GI50 [24]: 28.7 µM (inactive)
GI50 [25]: 6.7 µM (inactive)
GI50 [26]: 13.3 µM (inactive)
GI50 [28]: 4.47 µM (inactive)
GI50 [29]: 3.66 µM (inactive)
GI50 [30]: 7.19 µM (inactive)
GI50 [31]: > 10 µM (inactive)
GI50 [32]: 3.61 µM (inactive)
GI50 [33]: 6.25 µM (inactive)
GI50 [34]: 16.5 µM (inactive)
GI50 [35]: 5.94 µM (inactive)
GI50 [36]: 11.9 µM (inactive)
GI50 [59]: 11.1 µM (inactive)
GI50 [37]: 4.85 µM (inactive)
GI50 [39]: 12.9 µM (inactive)
GI50 [40]: 10.2 µM (inactive)
GI50 [41]: 12.7 µM (inactive)
GI50 [42]: 2.84 µM (inactive)
GI50 [43]: 3.9 µM (inactive)
GI50 [44]: 13.4 µM (inactive)
GI50 [45]: > 10 µM (inactive)
GI50 [46]: 4.01 µM (inactive)
GI50 [47]: 7.98 µM (inactive)
GI50 [48]: 21.3 µM (inactive)
GI50 [49]: 26.1 µM (inactive)
GI50 [50]: 20.9 µM (inactive)
GI50 [51]: 10.5 µM (inactive)
GI50 [52]: 3.34 µM (inactive)
GI50 [55]: 4.25 µM (inactive)
GI50 [57]: 12.3 µM (inactive)
